# Where two headings read alike, the source gives them in different places.
# How the values were obtained:
# physchem = conditions: hplc, formic acid
# Myzus persicae = test: Myzus test (spray treatment); type: in vivo; conditions: foliar, read-out: Wirkung
# From the text: Myzus-Test (Spritzbehandlung)
# Zur Herstellung einer zweckmäßigen Wirkstoffzubereitung vermischt man 1 Gewichtsteil Wirkstoff mit den angegebenen Mengen Lösungsmittel und Emulgator und verdünnt das Konzentrat mit emulgatorhaltigem Wasser auf die gewünschte Konzentration. Chinakohlblattscheiben (Brassica pekinensis), die von allen Stadien der Grünen Pfirsichblattlaus (Myzus persicae) befallen sind, werden mit einer Wirkstoffzubereitung der gewünschten Konzentration gespritzt. Nach der gewünschten Zeit wird die Wirkung in % bestimmt. Dabei bedeutet 100 %, dass alle Blattläuse abgetötet wurden; 0 % bedeutet, dass keine Blattläuse abgetötet wurden. Bei diesem Test zeigen z. B. die folgenden Verbindungen der Herstellungsbeispiele eine Wirkung von ≥ 80 % bei einer Aufwandmenge von 500 g/ha: • Bsp. Nr. 2, 3, 31, 32, 33, 36, 37, 39, 40, 41, 42, 43, 44, 45, 46, 63, 64, 65, 66, 86, 87, 88, 90, 95, 96, 97, 99, 103
# logP (HCOOH) = conditions: hplc, formic acid
# Meloidogyne incognita = test: Meloidogyne test (spray treatment), gall formation on lettuce roots; type: in vivo; conditions: 20 ppm; 100 % = no galls found
# From the text: Meloidogyne-Test (Spritzbehandlung)
# Zur Herstellung einer zweckmäßigen Wirkstoffzubereitung vermischt man 1 Gewichtsteil Wirkstoff mit der angegebenen Menge Lösungsmittel und verdünnt das Konzentrat mit Wasser auf die gewünschte Konzentration. Gefäße werden mit Sand, Wirkstofflösung, Meloidogyne incognita-Ei-Larven-Suspension und Salatsamen gefüllt. Die Salatsamen keimen und die Pflänzchen entwickeln sich. An den Wurzeln entwickeln sich die Gallen. Nach der gewünschten Zeit wird die nematizide Wirkung an Hand der Gallenbildung in % bestimmt. Dabei bedeutet 100 %, dass keine Gallen gefunden wurden; 0 % bedeutet, dass die Zahl der Gallen an den behandelten Pflanzen der der unbehandelten Kontrolle entspricht. Bei diesem Test zeigen z. B. die folgenden Verbindungen der Herstellungsbeispiele eine Wirkung von ≥ 80 % bei einer Aufwandmenge von 20 ppm: • Bsp. Nr. 15, 16, 18
# Boophilus microplus = Boophilus microplus test (injection); type: in vivo; conditions: 20 µg/Tier; injection into abdomen; 100 % = no tick laid fertile eggs
# From the text: Boophilus microplus -Test (Injektion)
# Zur Herstellung einer zweckmäßigen Wirkstoffzubereitung vermischt man 1 Gewichtsteil Wirkstoff mit der angegebenen Menge Lösungsmittel und verdünnt das Konzentrat mit Lösungsmittel auf die gewünschte Konzentration. Die Wirkstofflösung wird in das Abdomen (Boophilus microplus) injiziert, die Tiere werden in Schalen überführt und in einem klimatisierten Raum aufbewahrt. Nach der gewünschten Zeit wird die Wirkung in % bestimmt. Dabei bedeutet 100%, dass keine Zecke fertile Eier gelegt hat. Bei diesem Test zeigen z. B. die folgenden Verbindungen der Herstellungsbeispiele eine Wirkung von = 80 % bei einer Aufwandmenge von 20 µg/Tier: • Bsp. Nr. 43, 44, 45, 46, 63, 64, 65, 66
# [1] = 500 g/ha, spray on Brassica pekinensis leaf discs, 100 % = all aphids killed
compound,measurement,setting,value
C[C@H](N=C1NCCO1)c1cccs1 [Beispiel 37],chromatographic logP,physchem,0.33
same,mortality at 500 g/ha,Myzus persicae; in Brassica rapa,≥ 80%
CC(N=C1NCCO1)c1ccco1 (stereo not drawn) [Beispiel 95],mortality at 500 g/ha,Myzus persicae; in Brassica rapa,≥ 80%
CC(N=C1NCCO1)c1ccnc(Cl)c1 (stereo not drawn) [Beispiel 194],chromatographic logP,physchem,0.02
CCC(N=C1NCCO1)c1ccccn1 (stereo not drawn) [Beispiel 12],chromatographic logP,physchem,-0.01
Cn1cccc1CN=C1NCCO1 [Beispiel 80],chromatographic logP,physchem,-0.09
CCC(N=C1OCCN1C(=S)NCCOC)c1cccs1 (stereo not drawn) [Beispiel 88],chromatographic logP,logP (HCOOH),3.71
same,mortality at 500 g/ha,Myzus persicae; [1],≥ 80%
COCCNC(=S)N1CCOC1=NCc1ccsc1 [Beispiel 34],chromatographic logP,logP (HCOOH),2.71
CNC(=S)N1CCOC1=NC(C)c1ccnc(Cl)c1 (stereo not drawn) [Beispiel 195],chromatographic logP,logP (HCOOH),2.58
COCCNC(=S)N1CCOC1=NCc1cccs1 [Beispiel 42],chromatographic logP,logP (HCOOH),2.84
same,mortality at 500 g/ha,Myzus persicae; [1],≥ 80%
CCC(N=C1OCCN1C(=S)NCCOC)c1cc(Br)cs1 (stereo not drawn) [Beispiel 30],chromatographic logP,logP (HCOOH),4.48
COCCNC(=S)N1CCOC1=NC(C)c1cccnc1 (stereo not drawn) [Beispiel 16],nematizide Wirkung an Hand der Gallenbildung,Meloidogyne incognita,≥ 80%
same,chromatographic logP,logP (HCOOH),1.07
CC(N=C1NCCO1)c1cccs1 (stereo not drawn) [Beispiel 36],chromatographic logP,physchem,0.28
same,mortality at 500 g/ha,Myzus persicae; in Brassica rapa,≥ 80%
c1csc(CN=C2NCCO2)c1 [Beispiel 39],chromatographic logP,physchem,-0.08
same,mortality at 500 g/ha,Myzus persicae; in Brassica rapa,≥ 80%
CCNC(=S)N1CCOC1=NC(C)c1ccncc1 (stereo not drawn) [Beispiel 18],nematizide Wirkung an Hand der Gallenbildung,Meloidogyne incognita,≥ 80%
same,chromatographic logP,logP (HCOOH),1.07
"CCNC(=S)N1CCO/C1=N/C(C)c1ccccn1 (stereo not drawn) [Beispiel 2, (2E)-N-ethyl-2-[(1-pyridin-2-ylethyl)imino]-1,3-oxazolidine-3-carbothioamid]",chromatographic logP,logP (HCOOH),1.26
same,mortality at 500 g/ha,Myzus persicae; [1],≥ 80%
CCNC(=S)N1CCOC1=NC(C)c1cccnc1 (stereo not drawn) [Beispiel 15],nematizide Wirkung an Hand der Gallenbildung,Meloidogyne incognita,≥ 80%
same,chromatographic logP,logP (HCOOH),1.16
CC(N=C1OCCN1C(=S)NCC(F)(F)F)c1cccs1 (stereo not drawn) [Beispiel 46],chromatographic logP,logP (HCOOH),3.99
same,mortality at 500 g/ha,Myzus persicae; [1],≥ 80%
same,Wirkung,Boophilus microplus,80%
CCC(N=C1NCCO1)c1ccc(C(F)(F)F)cn1 (stereo not drawn) [Beispiel 4],chromatographic logP,physchem,0.97
CNC(=S)N1CCOC1=NC(C)c1cc2ccccc2o1 (stereo not drawn) [Beispiel 104],chromatographic logP,logP (HCOOH),3.64
CCOC(=O)CNC(=S)N1CCOC1=NC(C)c1ccnc(Cl)c1 (stereo not drawn) [Beispiel 198],chromatographic logP,logP (HCOOH),3.14
c1cc(CN=C2NCCO2)cs1 [Beispiel 32],chromatographic logP,physchem,-0.05
same,mortality at 500 g/ha,Myzus persicae; in Brassica rapa,≥ 80%
CCNC(=S)N1CCOC1=NC(C)c1ccnc(Cl)c1 (stereo not drawn) [Beispiel 196],chromatographic logP,logP (HCOOH),3.07
CCC(N=C1NCCO1)c1ccc(C)c(C)n1 (stereo not drawn) [Beispiel 8],chromatographic logP,physchem,0.06
CNC(=S)N1CCOC1=NCc1cccs1 [Beispiel 40],chromatographic logP,logP (HCOOH),2.45
same,mortality at 500 g/ha,Myzus persicae; [1],≥ 80%
CCC(N=C1OCCN1C(=S)NCCOC)c1ccc(C(F)(F)F)cn1 (stereo not drawn) [Beispiel 6],chromatographic logP,logP (HCOOH),3.69
CCn1ccc(C(C)N=C2OCCN2C(=S)NC)n1 (stereo not drawn) [Beispiel 76],chromatographic logP,logP (HCOOH),1.45
CCC(N=C1OCCN1C(=O)NCCCl)c1ccc(C(F)(F)F)cn1 (stereo not drawn) [Beispiel 5],chromatographic logP,logP (HCOOH),2.15
CC(N=C1NCCO1)c1cc2ccccc2o1 (stereo not drawn) [Beispiel 103],chromatographic logP,physchem,0.93
same,mortality at 500 g/ha,Myzus persicae; in Brassica rapa,≥ 80%
C[C@H](N=C1NCCS1)c1cccs1 [Beispiel 101],chromatographic logP,physchem,0.54
CCC(N=C1OCCN1C(=S)NC)c1cccs1 (stereo not drawn) [Beispiel 86],chromatographic logP,logP (HCOOH),3.46
same,mortality at 500 g/ha,Myzus persicae; [1],≥ 80%
COCCNC(=S)N1CCOC1=NCc1ccco1 [Beispiel 93],chromatographic logP,logP (HCOOH),2.84
CCNC(=S)N1CCOC1=N[C@@H](C)c1cccs1 [Beispiel 64],chromatographic logP,logP (HCOOH),3.59
same,mortality at 500 g/ha,Myzus persicae; [1],≥ 80%
same,Wirkung,Boophilus microplus,80%
CCNC(=S)N1CCOC1=NC(CC)c1cc(Br)cs1 (stereo not drawn) [Beispiel 31],chromatographic logP,logP (HCOOH),4.72
same,mortality at 500 g/ha,Myzus persicae; [1],≥ 80%
COCCNC(=S)N1CCOC1=NC(C)c1ccccn1 (stereo not drawn) [Beispiel 3],chromatographic logP,logP (HCOOH),1.12
same,mortality at 500 g/ha,Myzus persicae; [1],≥ 80%
CCNC(=S)N1CCOC1=NCc1ccco1 [Beispiel 92],chromatographic logP,logP (HCOOH),2.58
c1coc(CN=C2NCCO2)c1 [Beispiel 90],chromatographic logP,physchem,-0.23
same,mortality at 500 g/ha,Myzus persicae; in Brassica rapa,≥ 80%
CCNC(=S)N1CCOC1=NCc1ccsc1 [Beispiel 33],chromatographic logP,logP (HCOOH),2.56
same,mortality at 500 g/ha,Myzus persicae; [1],≥ 80%
CCNC(=S)N1CCOC1=NC(C)c1cc2ccccc2o1 (stereo not drawn) [Beispiel 105],chromatographic logP,logP (HCOOH),4.18
CCNC(=S)N1CCOC1=NC(CC)c1ccc(Cl)s1 (stereo not drawn) [Beispiel 108],chromatographic logP,logP (HCOOH),4.96
CNC(=S)N1CCOC1=NC(C)c1cccs1 (stereo not drawn) [Beispiel 43],chromatographic logP,logP (HCOOH),2.99
same,mortality at 500 g/ha,Myzus persicae; [1],≥ 80%
same,Wirkung,Boophilus microplus,80%
CNC(=S)N1CCOC1=NC(C)c1ccco1 (stereo not drawn) [Beispiel 96],chromatographic logP,logP (HCOOH),2.38
same,mortality at 500 g/ha,Myzus persicae; [1],≥ 80%
CNC(=S)N1CCOC1=NCc1ccco1 [Beispiel 91],chromatographic logP,logP (HCOOH),1.89
FC(F)(F)CNC(=S)N1CCOC1=NCc1ccco1 [Beispiel 94],chromatographic logP,logP (HCOOH),3.29
CCNC(=S)N1CCOC1=NC(CC)c1ccccn1 (stereo not drawn) [Beispiel 13],chromatographic logP,logP (HCOOH),1.53
CCOC(=O)CNC(=S)N1CCOC1=NCc1ccc(Cl)nc1 [Beispiel 188],chromatographic logP,logP (HCOOH),2.54
CCNC(=S)N1CCOC1=NC(CC)c1ccc(C)c(C)n1 (stereo not drawn) [Beispiel 10],chromatographic logP,logP (HCOOH),1.14
COCCNC(=S)N1CCOC1=NC(C)c1ccncc1 (stereo not drawn) [Beispiel 19],chromatographic logP,logP (HCOOH),1
CCNC(=S)N1CCOC1=NC(CC)c1ccc(C(F)(F)F)cn1 (stereo not drawn) [Beispiel 7],chromatographic logP,logP (HCOOH),3.85
CC(C)NC(=S)N1CCOC1=NCc1ccc(Cl)nc1 [Beispiel 187],chromatographic logP,physchem,3.14
CCNC(=S)N1CCOC1=NC(C)c1cccs1 (stereo not drawn) [Beispiel 44],chromatographic logP,logP (HCOOH),3.58
same,mortality at 500 g/ha,Myzus persicae; [1],≥ 80%
same,Wirkung,Boophilus microplus,80%
COCCNC(=S)N1CCOC1=NC(C)c1ccnc(Cl)c1 (stereo not drawn) [Beispiel 197],chromatographic logP,logP (HCOOH),2.83
CC(N=C1OCCN1C(=S)NCC(F)(F)F)c1cc2ccccc2o1 (stereo not drawn) [Beispiel 107],chromatographic logP,logP (HCOOH),4.47
COCCNC(=S)N1CCOC1=NC(C)c1cccs1 (stereo not drawn) [Beispiel 45],chromatographic logP,logP (HCOOH),3.28
same,mortality at 500 g/ha,Myzus persicae; [1],≥ 80%
same,Wirkung,Boophilus microplus,80%
CCNC(=S)N1CCOC1=NC(CC)c1cccs1 (stereo not drawn) [Beispiel 87],chromatographic logP,logP (HCOOH),4.06
same,mortality at 500 g/ha,Myzus persicae; [1],≥ 80%
CNC(=S)N1CCOC1=N[C@@H](C)c1cccs1 [Beispiel 63],chromatographic logP,logP (HCOOH),3.02
same,mortality at 500 g/ha,Myzus persicae; [1],≥ 80%
same,Wirkung,Boophilus microplus,80%
COCCNC(=S)N1CCOC1=NC(C)c1cc2ccccc2o1 (stereo not drawn) [Beispiel 106],chromatographic logP,logP (HCOOH),3.9
CNC(=S)N1CCOC1=NCc1ccsc1 [Beispiel 35],chromatographic logP,logP (HCOOH),1.83
CCC(N=C1OCCN1C(=S)NCCOC)c1ccc(C)c(C)n1 (stereo not drawn) [Beispiel 11],chromatographic logP,logP (HCOOH),1.33
C[C@H](N=C1OCCN1C(=S)NCC(F)(F)F)c1cccs1 [Beispiel 66],chromatographic logP,logP (HCOOH),3.98
same,mortality at 500 g/ha,Myzus persicae; [1],≥ 80%
same,Wirkung,Boophilus microplus,80%
CCC(N=C1OCCN1C(=O)NCCCl)c1ccc(C)c(C)n1 (stereo not drawn) [Beispiel 9],chromatographic logP,logP (HCOOH),1.18
